Reference: patent US10010608B2, “Combination therapies for cancer” (MERCK SHARP & DOHME CORP., priority 2013, dated 2018)

Test system: CT-26 murine colorectal adenocarcinoma cell line
Assay: Anti-tumor response of CT-26 tumor-bearing BALB/c mice (syngeneic model)
Format: in vivo, mouse
Source text: This experiment compared the anti-tumor response of tumor-bearing mice to treatment with one of three regimens: (i) monotherapy with a murine anti-mouse PD-1 monoclonal antibody of murine isotype IgG1 (Anti-PD1); (ii) monotherapy with trametinib and (iii) combination therapy with anti-PD1 and trametinib administered concurrently. Murine isotype IgG1 is the murine counterpart isotype to human isotype IgG4.
While human tumor cells or tumor explants can be grown in immunodeficient animals as xenografts, they cannot be used for testing immunotherapeutics because of the lack of a functional immune system. For a meaningful evaluation of immunotherapeutics or combination of immunotherapeutics with other agents, it is necessary to use a syngeneic model in which syngeneic tumors are grown in animals with an intact immune system. CT-26 is a murine colorectal adenocarcinoma cell line syngeneic to the BALB/c mouse strain. CT-26 carries a KRAS mutation that activates the mitogen-activating protein kinase pathway, which makes it a relevant model to evaluate sensitivity to trametinib (an inhibitor of mitogen-activated protein kinase kinase). This is also a relevant model system for evaluating the mechanism of action for an anti-PD-1 antibody because of the translatable molecular profile of this tumor post-anti-PD-1 therapy. […]

CC(=O)Nc1cccc(-n2c(=O)n(C3CC3)c(=O)c3c(Nc4ccc(I)cc4F)n(C)c(=O)c(C)c32)c1 [trametinib, N-{3-[3-cyclopropyl-5-(2-fluoro-4-iodo-phenylamino)6,8-dimethyl-2,4,7-trioxo-3,4,6,7-tetrahydro-2H-pyrido[4,3-d]pyrimidin-1-yl]phenyl}acetamide]
effect of trametinib on the anti-tumor effects of Anti-PD1 (combination treatment arm): did not appear to antagonize | animals with complete regression (CR) (end of the 23 day treatment period, 12 mice per group): no CRs
